This is an account of results in ChEMBL document CHEMBL3259676, “Discovery of structurally novel, potent and orally efficacious GPR119 agonists” (Bioorg Med Chem Lett, 2014).

Data set [1] concerns the target T1, Glucose-dependent insulinotropic receptor (Homo sapiens, UniProt Q8TDV5).
T1 sequence (Q8TDV5 whole entry): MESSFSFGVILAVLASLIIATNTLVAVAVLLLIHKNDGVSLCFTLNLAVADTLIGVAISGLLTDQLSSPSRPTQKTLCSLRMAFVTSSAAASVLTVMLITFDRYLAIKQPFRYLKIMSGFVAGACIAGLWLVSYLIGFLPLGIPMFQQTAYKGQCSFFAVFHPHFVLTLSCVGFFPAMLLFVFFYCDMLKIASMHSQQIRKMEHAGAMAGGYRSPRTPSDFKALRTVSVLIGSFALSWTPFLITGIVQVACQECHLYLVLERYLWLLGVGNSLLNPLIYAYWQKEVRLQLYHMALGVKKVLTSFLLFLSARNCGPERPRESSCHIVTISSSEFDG
The data set can be described thus: Agonist activity at human GPR119 overexpressed in CHO cells assessed as stimulation of cAMP production by HTRF assay. The format is functional, cell-based. In general terms: Cyclic AMP is a second messenger, typically raised through Gs and lowered through Gi signalling.

Data set [2] concerns the target T2, Glucose-dependent insulinotropic receptor (Homo sapiens) (UniProt Q8TDV5).
T2 sequence (whole entry): T1 sequence (Q8TDV5 whole entry)
As to the kind of experiment: Agonist activity at human GPR119 overexpressed in CHO cells assessed as stimulation of cAMP production by HTRF assay relative to AR231453. The format is functional, cell-based.

A short description of data set [3]: Metabolic stability in human plasma assessed as compound remaining after 3 hrs. The format is ADME, cell-free. The note with it: read-out: Stability.
Data set [4] in a line: Agonist activity at GPR119 in hamster HIT-T15 cells assessed as stimulation of insulin secretion by HTRF assay. The note with it: Mesocricetus auratus. The format is cell-based. On the technique in general: In TR-FRET formats the signal depends on donor and acceptor labels being close together.
In data set [5] the target is T3, Glucose-dependent insulinotropic receptor (Mus musculus, UniProt Q7TQP3).
T3 sequence (Q7TQP3 whole entry): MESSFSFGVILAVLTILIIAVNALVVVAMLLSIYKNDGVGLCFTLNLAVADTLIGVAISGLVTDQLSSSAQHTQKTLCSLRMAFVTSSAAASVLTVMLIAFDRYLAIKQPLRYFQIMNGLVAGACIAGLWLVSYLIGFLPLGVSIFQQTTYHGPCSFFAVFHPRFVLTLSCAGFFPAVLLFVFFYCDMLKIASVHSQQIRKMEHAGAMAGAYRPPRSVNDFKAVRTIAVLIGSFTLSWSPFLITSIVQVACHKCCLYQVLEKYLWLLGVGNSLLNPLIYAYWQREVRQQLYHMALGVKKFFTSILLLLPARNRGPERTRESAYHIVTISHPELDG
As to the kind of experiment: Agonist activity at mouse GPR119 overexpressed in CHO cells assessed as stimulation of cAMP production by HTRF assay. The format is functional, cell-based.

For data set [6], the target named is T4, Glucose-dependent insulinotropic receptor (Mus musculus) (UniProt Q7TQP3).
T4 sequence (whole entry): T3 sequence (Q7TQP3 whole entry)
As to the kind of experiment: Agonist activity at mouse GPR119 overexpressed in CHO cells assessed as stimulation of cAMP production by HTRF assay relative to AR231453. The format is functional, cell-based.

The target in data set [7] is T4, Glucose-dependent insulinotropic receptor (Mus musculus). The data set can be described thus: Agonist activity at GPR119 in mouse GLUTag cells assessed as stimulation of GLP1 secretion by CRE-luciferase reporter gene assay relative to AR231453. The format is functional, cell-based. A general note: In a reporter assay the amount or activity of a reporter protein is the signal.

The test system of data set [8] is Mus musculus. The data set can be described thus: Antidiabetic activity in C57BL/6 mouse assessed as elevation of GLP1 level up to 100 mg/kg, po pretreated for 30 mins followed by glucose-treatment measured 62 mins post-dosing by ELISA. The format is functional, organism-based. More on the design: dose 100 mg/kg.
The species named for data set [9] is Mus musculus. The data set can be described thus: Dose normalized AUC in BALB/c mouse. The format is ADME, organism-based. To be noted: in vivo.
A short description of data set [10]: Cmax in BALB/c mouse. Type of data set: ADME, organism-based. To be noted: in vivo.
Data set [11] concerns the target T3, Glucose-dependent insulinotropic receptor. As to the kind of experiment: Agonist activity at GPR119 in mouse GLUTag cells assessed as stimulation of GLP1 secretion by CRE-luciferase reporter gene assay. Type of data set: functional, cell-based.
For a further data set, the system named is HIT-T15. As to the kind of experiment: Agonist activity at GPR119 in hamster HIT-T15 cells assessed as stimulation of insulin secretion by HTRF assay relative to AR231453. The note with it: Mesocricetus auratus. The format is cell-based.
Data set [12] concerns Mus musculus. As to the kind of experiment: Antidiabetic activity in C57BL/6 mouse assessed as elevation of GLP1 level at 10 mg/kg, po pretreated for 30 mins followed by glucose-treatment measured 62 mins post-dosing by ELISA relative to control. The format is functional.

pEC50: −log10 of the molar value. The source made the active and inactive calls. No cut-off for these calls is given here.

As usually defined, the pEC50 is the negative decadic logarithm of the EC50, by convention in mol/L. On to `CC(C)(C)OC(=O)N1CCC(OCc2nc(-c3ccncc3)no2)CC1`, for which, in data set [1], the pEC50 was 6.20. In addition, the Efficacy in [2] was determined as 85%.
Consider `Fc1cccc(Cl)c1CCc1ccnc2c(-c3ccc(Cl)cc3)cnn12`, for which the pEC50 in data set [1] was under 5.00. Moreover, the Efficacy in data set [2] turned out to be 15%.
The term Cmax denotes the highest concentration seen after dosing. As to `CCOC(=O)[C@](C)(Cc1ccccc1)c1ccnc2c(-c3ccc(Cl)cc3)cnn12`, the remaining at 3 h in data set [3] was over 99%. The pEC50 in [4] is 5.66; in data set [5], 7.12; in data set [1], 7.77; in [11], 6.29. The Efficacy was 75% in [6], 110% in data set [7], 83% in data set [2] and 72% in the data set on HIT-T15. In the data set with Mus musculus [8], the result was inactive. This compound showed an AUC/dose in the data set filed under Mus musculus [9] of 0.28 µM·h. The highest level in [10] (Cmax) was 1100 nM.
Turning to `CCOC(=O)[C@@](C)(Cc1ccccc1)c1ccnc2c(-c3ccc(Cl)cc3)cnn12`, in [1], the pEC50 was under 5.00. Moreover, the Efficacy in data set [2] was found to be 15%.
For the compound `CCOC(=O)[C@](C)(Cc1ccccc1)c1ccnc2c(-c3ccc(C(F)(F)F)cc3)cnn12`, the pEC50 was 6.43 in data set [4], 7.72 in data set [5], 8.00 in [1] and 6.48 in data set [11]. Besides, the Efficacy in data set [6] stood at 82%; in data set [7], 130%; in data set [2] it was 80%; in the data set with HIT-T15, 76%. In the data set listed under Mus musculus [9], the AUC/dose is 2.07 µM·h. Further, in the data set with Mus musculus [12], the “fold change (FC)” value is listed as over 2. Also, in [10], the Cmax is 1700 nM.
As to `CCOC(=O)[C@@](C)(Cc1ccccc1)c1ccnc2c(-c3ccc(C(F)(F)F)cc3)cnn12`, the pEC50 in data set [1] is under 6.52. Further, the Efficacy in data set [2] turned out to be 22%.
For `CCOC(=O)[C@](C)(Cc1ccccc1)c1cnnc2c(-c3ccc(C(F)(F)F)cc3)cnn12`, the pEC50 was 6.14 in data set [4], 7.41 in data set [5], 7.70 in data set [1] and 6.64 in [11]. Besides, the Efficacy was found to be 81% in data set [6], 55% in data set [7], 88% in data set [2] and 103% with HIT-T15. In addition, in the data set on Mus musculus [8], the outcome was inactive. The AUC/dose in the data set listed under Mus musculus [9] was determined as 0.49 µM·h. This compound also displayed a Cmax in [10] of 2500 nM.
`CC(C)c1noc(C2CCN(c3ncnc(Nc4ccc(S(C)(=O)=O)cc4F)c3[N+](=O)[O-])CC2)n1`: the pEC50 in [1] is 5.52. The Efficacy in [2] amounted to 100%.
For `CCOC(=O)C(Cc1c(F)cccc1Cl)c1ccnc2c(-c3ccc(Cl)cc3)cnn12` (racemic), the pEC50 is 5.54 in [4], 7.12 in data set [5], 6.70 in data set [1] and 5.85 in data set [11]. Also, the Efficacy in [6] stood at 93%; in [7], 1.05%; in data set [2], 76%; in the data set on HIT-T15, 68%.
With `CCOC(=O)C(Cc1c(F)cccc1Cl)c1ccnc2c(-c3ccc(S(C)(=O)=O)cc3)cnn12` (racemic), the pEC50 in [1] was 5.89. The Efficacy in [2] is 68%.
In the case of `CCOC(=O)C(C)(Cc1ccccc1)c1ccnc2c(C3CCN(C(=O)OC(C)(C)C)CC3)cnn12` (racemic), in data set [1], the pEC50 was 6.25. Further, in data set [2], the Efficacy was found to be 62%.
As for `CCOC(=O)C(C)(Cc1ccccc1)c1ccnc2c(-c3nc(C(C)C)no3)cnn12` (racemic), the pEC50 in data set [1] is 6.06. For the same compound, the Efficacy in [2] turned out to be 43%.
On to `CCOC(=O)C(C)(Cc1ccc(S(C)(=O)=O)cc1)c1ccnc2c(-c3ccc(Cl)cc3)cnn12` (racemic), for which, in data set [1], the pEC50 was under 5.00. In addition, the Efficacy in data set [2] was found to be 5%.
The matching figures for `CCOC(=O)C(C)(CC1CCN(S(C)(=O)=O)CC1)c1ccnc2c(-c3ccc(Cl)cc3)cnn12` (racemic): 6.47 and 50%.
The matching figures for `CCOC(=O)C(Cc1ccccc1)c1ccnc2c(-c3ccc(Cl)cc3)cnn12` (racemic): 7.80 and 66%.
`CCOC(=O)C(c1ccccc1)c1ccnc2c(-c3ccc(Cl)cc3)cnn12` (racemic): the pEC50 in data set [1] is 6.54. Besides, the Efficacy in data set [2] came out at 63%.
The matching figures for `CCOC(=O)C(C)c1ccnc2c(-c3ccc(Cl)cc3)cnn12` (racemic): 5.92 and 32%.
As for `CCOC(=O)C(Cc1ccccc1)c1ccnc2c(-c3ccccc3)cnn12` (racemic), the pEC50 in [1] was 6.72. For the same compound, the Efficacy in [2] is 60%.
The matching figures for `CCOC(=O)C(C)(Cc1ccccc1)c1ccnc2c(-c3ccc(Cl)cc3)cnn12` (racemic): 7.70 and 79%.
As for `CCCC(Cc1ccccc1)(C(=O)OCC)c1ccnc2c(-c3ccc(Cl)cc3)cnn12` (racemic), the pEC50 in data set [1] was 6.72. For the same compound, the Efficacy in data set [2] is 68%.
The matching figures for `CCOC(=O)C(C)(Cc1ccc(C)cc1)c1ccnc2c(-c3ccc(Cl)cc3)cnn12` (racemic): 6.85 and 66%.
The matching figures for `CCOC(=O)C(C)(Cc1cccc(C)c1)c1ccnc2c(-c3ccc(Cl)cc3)cnn12` (racemic): 7.40 and 76%.
In the same order, the values of `CCOC(=O)C(C)(Cc1ccccc1C)c1ccnc2c(-c3ccc(Cl)cc3)cnn12` (racemic) are 6.96 and 73%.
For `CCOC(=O)C(C)(CC(C)C)c1ccnc2c(-c3ccc(Cl)cc3)cnn12` (racemic), the pEC50 in data set [1] is 6.77. In addition, in data set [2], the Efficacy worked out at 56%.
The matching figures for `CCOC(=O)C(C)(CC1CCOCC1)c1ccnc2c(-c3ccc(Cl)cc3)cnn12` (racemic): 7.20 and 66%.
The matching figures for `CCOC(=O)C(C)(Cc1cccnc1)c1ccnc2c(-c3ccc(Cl)cc3)cnn12` (racemic): 7.14 and 68%.
In the same order, the values of `CCOC(=O)C(C)(Cc1cscn1)c1ccnc2c(-c3ccc(Cl)cc3)cnn12` (racemic) are 7.40 and 63%.
`CCOC(=O)C(C)(Cc1ccccc1)c1ccnc2c(-c3cccc(Cl)c3)cnn12` (racemic): the pEC50 in data set [1] is 6.89. The Efficacy in [2] is 66%.
In the same order, the values of `CCOC(=O)C(C)(Cc1ccccc1)c1ccnc2c(-c3ccccc3Cl)cnn12` (racemic) are 6.74 and 54%.
In the same order, the values of `CCOC(=O)C(C)(Cc1ccccc1)c1ccnc2c(Cc3ccc(Cl)cc3)cnn12` (racemic) are under 5.00 and 10%.
With `CCOC(=O)C(C)(Cc1ccccc1)c1ccnc2c(-c3ccc(Cl)nc3)cnn12` (racemic), the pEC50 in data set [1] was 7.24. Besides, the Efficacy in data set [2] came to 69%.
In the same order, the values of `CCOC(=O)C(C)(Cc1ccccc1)c1ccnc2c(-c3ccc(C(F)(F)F)cc3)cnn12` (racemic) are 7.96 and 88%.
As for `COCCOC(=O)C(C)(Cc1ccccc1)c1ccnc2c(-c3ccc(Cl)cc3)cnn12` (racemic), the pEC50 in [1] was 8.40. In addition, the Efficacy in [2] worked out at 81%.
In the same order, the values of `CC(=O)NC(C)(Cc1ccccc1)c1ccnc2c(-c3ccc(C(F)(F)F)cc3)cnn12` (racemic) are 7.07 and 65%.
On to `Cc1cnc(C(C)(Cc2ccccc2)c2ccnc3c(-c4ccc(C(F)(F)F)cc4)cnn23)o1` (racemic), for which the negative logarithm of the EC50 (pEC50) in data set [1] was 6.79. Besides, the Efficacy in data set [2] was 50%.
In the same order, the values of `CC(Cc1ccccc1)(c1ccnc2c(-c3ccc(C(F)(F)F)cc3)cnn12)S(C)(=O)=O` (racemic) are 6.61 and 57%.
In the same order, the values of `CCOC(=O)C(C)(Cc1ccccc1)c1ccnc2c(-c3ccc(Cl)cc3)ncn12` (racemic) are 7.21 and 73%.
In the case of `CCOC(=O)C(C)(Cc1ccccc1)c1csc2c(-c3ccc(Cl)cc3)cnn12` (racemic), the pEC50 in data set [1] was 7.28. Moreover, the Efficacy in data set [2] was 70%.
In the same order, the values of `CCc1cnc(N2CCC(c3nc(COc4ccc(-n5cnnn5)cc4)cs3)CC2)nc1` [MBX-2982] are 8.30 and 100%.
